Assay results as given in US5753789A, “Oligonucleotides containing L-nucleosides” (priority 1996, dated 1998).
Like-named read-outs stand apart in the source and are kept apart here.

Columns and labels:
[1] = Cytotoxicity in H1 cells (cell count); assay type: cell-based; conditions: human
Protocol: (§1) Inhibitory effect of compounds on EBV: The CD50 was performed by
exposing H1 cells to different concentrations of the compounds in normal
growth medium at 37° C. for 72 hours; the cells were then counted
and compared with controls. H1 cells were treated for 5 days and the […]

EBV = assay: Inhibitory effect of compounds on EBV (virus production in H1 cells, bioassay of EBV DP activity in Raji cells); assay type: cell-based, Epstein-Barr virus; conditions: for Therapeutic Index (CD50/ID90): CD50 in H1 cells / ID90 for EBV; for IC90: human gammaherpesvirus 4, Raji, 120 h, EBV, H1 cells treated for 5 days, bioassay, read-out: ID90 (the source's name)
Protocol: (§2) H1 cells were maintained in […] growth for two days prior to the initiation of treatment. The cells were centrifuged at 600 g for 10 min. at room temperature to separate them from the medium containing pre-existing virus particles. The H1 cells were seeded in 24 well plates at a density of 1×10^5 cells per well in 2 ml of fresh medium with or without drug and incubated at 37° C. for 5 days. The medium containing virion was saved and used for evaluating the inhibitory effect of drugs on virus production and infectivity by use of a bioassay. The virion were pelleted from the cell free medium by centrifugation at 45,000 rpm for 90 min. in a SW-50 Ti rotor (Beckman). The virion were resuspended in 1 ml growth medium and then used to infect 1×10^6 Raji cells for 48 hours. Since the level of EBV DP activity in Raji cells post superinfection is proportional to the number of virions added, the EBV specific DP activity induced was able to be measured. The inhibitory drug effect was calculated by comparing the EBV DP activity to multiple dilution controls.
as §1
and compared with controls. H1 cells were treated for 5 days and the
ID90 was determined by bioassay.

HBV = assay: Biological activity against HBV in 2.2.15 cells (HBV DNA, Southern analysis); assay type: cell-based; conditions: Hepatitis B virus, 144 h, read-out: Anti-HBV Activity ID50
Protocol: Human hepatoma cells with HBV (2.2.15 cells) were used in the assay. These cells were grown to confluence in minimal essential medium with 10% fetal bovine serum. The media was changed at 3-day intervals. At confluence the treatment with the drugs was initiated and then continued for three days. Another addition of the same concentration of the drug was given at this point after removal of the media from the cultures and cultures maintained for an additional period of 3 days. The medium after the 6-day treatment was harvested and the viral particles precipitated by the polyethylene glycol method. The particles were subsequently digested and then processed for Southern analysis. The blots were hybridized to an HBV-specific probe and viral DNA amounts assessed in comparison to DNA levels from cultures not treated with the drugs. The genomic DNA was digested with Hind III and subjected to Southern analysis. Levels of the episomal DNA were determined in relation to the integrated HBV DNA. The drug concentrations that cause 50% inhibition of the DNA (ID50) as compared to the controls were calculated.

[2] = Clearance of L-(-)-FMAU from liver after oral administration; assay type: in vivo; conditions: mice, 10 or 50 mg/kg
Protocol: (§3) The clearance of L-(-)-FMAU from the plasma and liver of mice after oral administration was evaluated. Mice were […] with L-(-)-FMAU which was tritium labeled (radiospecificity of […]).
(§4) FIG. 11 is a graph of the plasma concentration of L-(-)-FMAU in mice after oral administration over time, and FIG. 12 is a graph of the concentration of L-(-)-FMAU in mouse liver after oral administration over time (cross, 10 mg/kg administered bid (bi-daily) for 30 days prior to pharmacokinetic study and then study carried out on day thirty-one on administration of same concentration; dark circle, 50 mg/kg administered bid for 30 days prior to study and then study carried out on day thirty-one on administration of same concentration; open circle, 50 mg/kg administered for the first time on the first day of the study).
(§5) At the times indicated (see FIGS. […]) the mice were bled from their retro-orbital sinus using heparinized capillaries. The plasma was extracted with trichloroacetic acid and neutralized with freon/trioctylamine. Supernatants were directly counted and the concentration calculated.

[3] = Clearance of L-(-)-FMAU from plasma after oral administration; assay type: in vivo; conditions: mice, 10 or 50 mg/kg
Protocol: as §3, §4, §5

[4] = Clinical chemistry of mouse plasma after L-(-)-FMAU treatment; assay type: in vivo; conditions: 10 or 50 mg/kg bid, thirty days
Protocol: FIGS. 14-20 provide the clinical chemistry of mouse plasma after administration of L-(-)-FMAU at 10 mg/kg (three mice) or 50 mg/kg (three mice) bid for thirty days.

[5] = Toxicity in BDF1 female mice (body weight over thirty days); assay type: in vivo; conditions: 10 mg/kg and 50 mg/kg bid
Protocol: FIG. 13a illustrates the change in body weight over thirty days of control BDF1 female mice. FIGS. 13b and 13c illustrate the change in body weight over thirty days of BDFI female mice dosed with 10 mg/kg (13b) and 50 mg/kg (13c) bid of L-(-)-FMAU. The body weight presented represents the mean and standard deviation of that of five to seven mice.

[6] = tested on: mitochondrial DNA content in H1 cells; assay: Mitochondrial DNA content of H1 cells (slot blot assay); assay type: cell-based, human; conditions: 1 mM, 6 days
Protocol: as §2
Slot Blot Assay--The amount of mitochondrial DNA was measured by the slot blot method (2). […] The amount of mitochondrial DNA in the treated and non-treated H1 cells was quantified by densitometer (LKB Ultroscan XL).

[7] = 37° C., 72 hours, Table 2, read-out: CD50
[8] = Table I, read-out: (H1 cells) CD50

| Structure (SMILES) | CC50 at 72 h [1, 7] [µM] | Therapeutic Index (CD50/ID90) (EBV) | CC50 at 72 h [1, 8] [µM] | IC90 (EBV) [µM] | further results |
| --- | --- | --- | --- | --- | --- |
| Nc1nc2c(ncn2COCCO)c(=O)[nH]1 [ACV] | 1000 ± 75 | 20 | – | – | – |
| CCc1cn([C@@H]2O[C@H](CO)[C@@H](O)[C@@H]2F)c(=O)[nH]c1=O [D-FEAU] | – | 2000 | 2000 | – | – |
| Nc1nc(=O)n([C@@H]2O[C@H](CO)[C@@H](O)[C@@H]2F)cc1I [D-FIAC] | 125 ± 15 | 25 | – | 5 ± 0.5 | – |
| O=c1[nH]c(=O)n([C@@H]2O[C@H](CO)[C@@H](O)[C@@H]2F)cc1I [D-FIAU] | 20 ± 4 | 40 | – | 0.5 ± 0.05 | – |
| Cc1cn([C@@H]2O[C@H](CO)[C@@H](O)[C@@H]2F)c(=O)[nH]c1=O [D-FMAU] | – | 50 | 50 | – | IC50 (HBV): 2 µM |
| Nc1nc2c(ncn2COC(CO)CO)c(=O)[nH]1 [DHPG] | 75 ± 6 | 15 | – | – | – |
| CCc1cn([C@H]2O[C@@H](CO)[C@H](O)[C@H]2F)c(=O)[nH]c1=O [L-FEAU, 2'-fluoro-5-ethyl-β-L-arabinofuranosyluridine] | – | 15 | 900 | 60 ± 11 | – |
| Nc1nc(=O)n([C@H]2O[C@@H](CO)[C@H](O)[C@H]2F)cc1I [L-FIAC, 2'-fluoro-5-iodo-β-L-arabinofuranosylcytosine] | 400 ± 35 | > 40 | – | < 10 | – |
| O=c1[nH]c(=O)n([C@H]2O[C@@H](CO)[C@H](O)[C@H]2F)cc1I [L-FIAU, 2'-fluoro-5-iodo-β-L-arabinofuranosyluridine] | 240 ± 20 | 12 | – | 20 ± 4 | – |
| Cc1cn([C@H]2O[C@@H](CO)[C@H](O)[C@H]2F)c(=O)[nH]c1=O [L-FMAU, 2'-fluoro-5-methyl-β-L-arabinofuranosyluridine] | – | 200 | 1000 | – | Clearance from liver [2]: substantially cleared from both plasma and liver after four hours; Time of peak concentration in liver [2]: approximately one; Clearance from plasma [3]: substantially cleared from both plasma and liver after four hours; Time of peak concentration in plasma [3]: approximately one; ALT (SGPT) in mouse plasma [4]: With the exception of mouse 50-2 (for both SGOT and SGPT) and mouse 10-2 (for SGOT only), the enzyme levels of the treated mice are not different from those of the control mice; AST (SGOT) in mouse plasma [4]: With the exception of mouse 50-2 (for both SGOT and SGPT) and mouse 10-2 (for SGOT only), the enzyme levels of the treated mice are not different from those of the control mice; Creatinine in mouse plasma [4]: With the exception of mouse 50-2, the creatinine levels of the treated mice are not different from those of the control mice; Lactic acid in mouse plasma [4]: not significantly differnt from those of the control mice; Lactic dehydrogenase in mouse plasma [4]: not significantly differnt from those of the control mice; Alkaline phosphatase in mouse plasma ([4]; normal human level 30-114 U/L): somewhat higher than the normal human level; Total bilirubin in mouse plasma ([4]; normal human range less than 1.2 mg/dL): fall within the normal human range; IC50 (HBV): 0.1 µM; Change in body weight [5]: did not appear to significantly affect the weight of the mice over thirty days; Tolerability [5]: well tolerated; Inhibition of mitochondrial DNA content [6]: No inhibition of mitochondrial DNA content in H1 cells was observed |
| Nc1nc2c(ncn2CCC(CO)CO)c(=O)[nH]1 [PCV] | 500 ± 55 | 25 | – | – | – |
| O=C(O)P(=O)(O)O [PFA] | 1200 ± 100 | 16 | – | – | – |
